What was measured:
[1] = very low solubility in water, high lipophilicity; cited from earlier work
[2] = Saturated solubility of CBD (HPLC); format: physicochemical; conditions: formulations containing PLURONIC F127 from 7% to 11%, excess CBD stirred overnight at room temperature, filtered 0.45 μm
Protocol: To determine the saturated solubility of CBD in the presence of PLURONIC® F127, PLURONIC® formulations were made as above. To each formulation excess CBD was added and left stirring overnight on a magnetic stirrer at room temperature (FIG. 17). To see how addition of lipids affects saturated solubility, lipids were added to 5% PLURONIC® F127 containing excess CBD using the ethanol injection method. For this, a 19G needle was immersed into the formulation being stirred, and 8.11% (volume of sample end volume) of the lipid stock formulation was injected at the rate of 750 μl/7 sec. Each formulation at this point was then left stirring overnight as above. On the following day, the formulations were filtered using 0.45 μm syringe filters and the amount of CBD dissolved was quantified using high pressure liquid chromatography.
CBD content was determined by diluting the samples in acetonitrile (ACN) (as needed) and then analysing them using HPLC. Calibration curve and sample quantification was carried out using an Agilent Infinity 1260 system. An Eclipse Plus C18, 4.6×150 mm, 3.5 μm column was purchased from […]. The mobile phase used was ACN:Water (82:18 v/v). HPLC analysis was carried at room temperature at a flow rate of 1 ml/min and an injection volume of 20 μl. […] Particle size and polydispersity was determined using a Brookhaven dynamic light scattering system.

C=C(C)[C@@H]1CCC(C)=C[C@H]1c1c(O)cc(CCCCC)cc1O [CBD, cannabidiol]
Biopharmaceutical Classification System (BCS) classification [1]: class 2
peak CBD concentration (saturated solubility) [2]: approximately 2 % w/v
